Assay results taken from patent US20230081426A1, “COMPOUNDS AND METHODS FOR KRAS MODULATION AND INDICATIONS THEREFOR” (Plexxikon Inc., priority 2020, published 2023).

Experiments:
[1] = target: T1, G12D-mutant human KRAS (amino acid residues 1-188) (Homo sapiens, UniProt P01116, G12D); experiment: KRAS Binding Disruption Assay (AlphaScreen; biotinylated KRpep-2d analogue or RAF1-RBD), G12D; details: KRAS G12D; geometric mean; read-out: KRAS GMean IC50 (uM) MUTATION: G12D
T1 construct: G12D or G12C-mutant human KRAS (amino acid residues 1-188) with FLAG tag; made in house; host or cells: E. coli
In short: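 Compounds are titrated against 5-20 nM mutant KRAS and 5-20 nM of either a biotinylated KRpep-2d analogue or RAF1-RBD, incubated 1 h at 25° C. Disruption is detected as reduced Alpha signal after 1 h with donor and acceptor beads at 10 μg/mL.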

[2] = target: T2, G12V-mutant human KRAS (amino acid residues 1-188) (Homo sapiens, UniProt P01116, G12V); experiment: KRAS Binding Competition Assay (AlphaScreen; biotinylated KRpep-2d analogue), G12V; details: geometric mean, read-out: KRAS GMean IC50 (uM) MUTATION: G12V
T2 construct: G12V-mutant human KRAS (amino acid residues 1-188) with FLAG tag was purified from E. coli; made in house; host or cells: E. coli

Row | SMILES | IC50 [1] [µM] | IC50 [2] [µM]
1 | CN1CCC[C@H]1COc1nc(N2[C@@H]3CC[C@H]2CN(C(=O)CCCN2CCOCC2)C3)c2ccc(-c3cc(O)cc4ccccc34)cc2n1 [P-0267, 1-((1R,5S)-8-(7-(3-hydroxynaphthalen-1-yl)-2-(((S)-1-methylpyrrolidin-2-yl)methoxy)quinazolin-4-yl)-3,8-diazabicyclo[3.2.1]octan-3-yl)-4-morpholinobutan-1-one] | 10 to 100 | 10 to 100
2 | CC(=O)Nc1cccc(-c2ccc3c(N4C[C@H]5CC[C@@H](C4)N5)nc(OCC4CCCN4C)nc3c2)c1 (stereo partly drawn) [P-0156, N-(3-(4-((1R,5S)-3,8-diazabicyclo[3.2.1]octan-3-yl)-2-((1-methylpyrrolidin-2-yl)methoxy)quinazolin-7-yl)phenyl)acetamide] | 100 to 1000 | 100 to 1000
3 | O=C(Cc1c[nH]cn1)N1[C@@H]2CC[C@H]1CN(c1nc(OCC34CCCN3CCC4)nc3c(F)c(-c4cc(O)cc5ccccc45)ccc13)C2 [P-0188, 1-((1R,5S)-3-(8-fluoro-7-(3-hydroxynaphthalen-1-yl)-2-((tetrahydro-1H-pyrrolizin-7a(5H)-yl)methoxy)quinazolin-4-yl)-3,8-diazabicyclo[3.2.1]octan-8-yl)-2-(1H-imidazol-4-yl)ethan-1-one] | 0.0001 to 10 | 0.0001 to 10
4 | CN1CCC[C@H]1COc1nc(N2[C@@H]3CC[C@H]2CNC3)c2ccc(-c3c(Cl)cccc3Cl)cc2n1 [P-0264, 4-((1R,5S)-3,8-diazabicyclo[3.2.1]octan-8-yl)-7-(2,6-dichlorophenyl)-2-(((S)-1-methylpyrrolidin-2-yl)methoxy)quinazoline] | 10 to 100 | 10 to 100
5 | CN1CCC[C@H]1COc1nc(N2[C@@H]3CC[C@H]2CN(CC(=O)N2CCOCC2)C3)c2ccc(-c3cc(O)cc4ccccc34)cc2n1 [P-0276, 2-((1R,5S)-8-(7-(3-hydroxynaphthalen-1-yl)-2-(((S)-1-methylpyrrolidin-2-yl)methoxy)quinazolin-4-yl)-3,8-diazabicyclo[3.2.1]octan-3-yl)-1-morpholinoethan-1-one] | 10 to 100 | 10 to 100
6 | Oc1cc(-c2ccc3c(N4C[C@H]5CC[C@@H](C4)N5)nc(CCN4CCCC4)nc3c2F)c2ccccc2c1 [P-0439, 4-(4-((1R,5S)-3,8-diazabicyclo[3.2.1]octan-3-yl)-8-fluoro-2-(2-(pyrrolidin-1-yl)ethyl)quinazolin-7-yl)naphthalen-2-ol] | 0.0001 to 10 | 10 to 100
7 | CCN1CCC[C@H]1COc1nc(N2C[C@H]3CC[C@@H](C2)N3)c2ccc(-c3cc(O)cc4ccccc34)cc2n1 [P-0080, 4-(4-((1R,5S)-3,8-diazabicyclo[3.2.1]octan-3-yl)-2-(((S)-1-ethylpyrrolidin-2-yl)methoxy)quinazolin-7-yl)naphthalen-2-ol] | 0.0001 to 10 | 10 to 100
8 | CN1CCC[C@H]1COc1nc(N2[C@@H]3CC[C@H]2CN(CC2(O)CCNCC2)C3)c2ccc(-c3cc(O)cc4ccccc34)cc2n1 [P-0348, 4-(((1R,5S)-8-(7-(3-hydroxynaphthalen-1-yl)-2-(((S)-1-methylpyrrolidin-2-yl)methoxy)quinazolin-4-yl)-3,8-diazabicyclo[3.2.1]octan-3-yl)methyl)piperidin-4-ol] | 10 to 100 | 10 to 100
9 | CN1CCC[C@H]1COc1nc(N2C[C@H]3CC[C@@H](C2)N3C(=O)CC(N)=O)c2ccc(-c3cc(O)cc4ccccc34)c(F)c2n1 [P-0398, 3-((1R,5S)-3-(8-fluoro-7-(3-hydroxynaphthalen-1-yl)-2-(((S)-1-methylpyrrolidin-2-yl)methoxy)quinazolin-4-yl)-3,8-diazabicyclo[3.2.1]octan-8-yl)-3-oxopropanamide] | 0.0001 to 10 | 0.0001 to 10
10 | CN1CCC[C@H]1COc1nc(N2CC3CCC2CN3)c2ccc(-c3cc(O)cc4ccccc34)cc2n1 (stereo partly drawn) [P-0050, 4-(4-(2,5-diazabicyclo[2.2.2]octan-2-yl)-2-(((S)-1-methylpyrrolidin-2-yl)methoxy)quinazolin-7-yl)naphthalen-2-ol] | 0.0001 to 10 | 10 to 100
11 | CN1CCC[C@H]1COc1nc(N2[C@@H]3CC[C@H]2CN(C(=O)CCC2CCCNC2)C3)c2ccc(-c3cc(O)cc4ccccc34)cc2n1 (stereo partly drawn) [P-0192, 1-((1R,5S)-8-(7-(3-hydroxynaphthalen-1-yl)-2-(((S)-1-methylpyrrolidin-2-yl)methoxy)quinazolin-4-yl)-3,8-diazabicyclo[3.2.1]octan-3-yl)-3-(piperidin-3-yl)propan-1-one] | 10 to 100 | 10 to 100
12 | CN1CCC[C@H]1COc1nc(N2[C@@H]3CC[C@H]2CNC3)c2ccc(-c3cc(O)cc4ccccc34)cc2n1 [P-0336, 4-(4-((1R,5S)-3,8-diazabicyclo[3.2.1]octan-8-yl)-2-(((S)-1-methylpyrrolidin-2-yl)methoxy)quinazolin-7-yl)naphthalen-2-ol] | 0.0001 to 10 | 10 to 100
13 | CN(C)CCc1nc(N2C[C@H]3CC[C@@H](C2)N3)c2ccc(-c3cc(O)cc4ccccc34)c(F)c2n1 [P-0413] | 0.0001 to 10 | 10 to 100
14 | Oc1cc(-c2ccc3c(N4[C@@H]5CC[C@H]4CNC5)nc(CC4CCNCC4)nc3c2)c2ccccc2c1 [P-0200, 4-(4-((1R,5S)-3,8-diazabicyclo[3.2.1]octan-8-yl)-2-(piperidin-4-ylmethyl)quinazolin-7-yl)naphthalen-2-ol] | 0.0001 to 10 | 10 to 100
15 | CN1CCC[C@H]1COc1nc(N2CC3CCC(C2)N3)c2ccc(-c3cccc(NS(C)(=O)=O)c3)cc2n1 [P-0170, N-(3-(4-((1R,5S)-3,8-diazabicyclo[3.2.1]octan-3-yl)-2-(((S)-1-methylpyrrolidin-2-yl)methoxy)quinazolin-7-yl)phenyl)meanesulfonamide] | 100 to 1000 | 100 to 1000
16 | Cc1c(-c2c(F)cc3c(N4C[C@H]5CC[C@@H](C4)N5)nc(OC[C@@H]4CCCN4C)nc3c2F)cccc1C(F)(F)F [P-0474, 4-((1R,5S)-3,8-diazabicyclo[3.2.1]octan-3-yl)-6,8-difluoro-7-(2-methyl-3-(trifluoromethyl)phenyl)-2-(((S)-1-methylpyrrolidin-2-yl)methoxy)quinazoline] | 0.0001 to 10 | 10 to 100
17 | CN1CCC[C@H]1COc1nc(N2C[C@H]3CC[C@@H](C2)N3)c2ccc(Nc3n[nH]c4c(F)cccc34)c(F)c2n1 [P-0438, 4-((1R,5S)-3,8-diazabicyclo[3.2.1]octan-3-yl)-8-fluoro-N-(7-fluoro-1H-indazol-3-yl)-2-(((S)-1-methylpyrrolidin-2-yl)methoxy)quinazolin-7-amine] | 10 to 100 | 10 to 100
18 | OCC1CN(c2nc(N3C[C@H]4CC[C@@H](C3)N4)c3ccc(-c4cc(O)cc5ccccc45)c(F)c3n2)CC1O (stereo partly drawn) [P-0629, 1-(4-((1R,5S)-3,8-diazabicyclo[3.2.1]octan-3-yl)-8-fluoro-7-(3-hydroxynaphthalen-1-yl)quinazolin-2-yl)-4-(hydroxymethyl)pyrrolidin-3-ol] | 0.0001 to 10 | 10 to 100
19 | O=C(Cc1c[nH]c(=O)[nH]c1=O)N1[C@@H]2CC[C@H]1CN(c1nc(OCC34CCCN3CCC4)nc3c(F)c(-c4cc(O)cc5ccccc45)ccc13)C2 [P-0374, 5-(2-((1R,5S)-3-(8-fluoro-7-(3-hydroxynaphthalen-1-yl)-2-((tetrahydro-1H-pyrrolizin-7a(5H)-yl)methoxy)quinazolin-4-yl)-3,8-diazabicyclo[3.2.1]octan-8-yl)-2-oxoethyl)pyrimidine-2,4(1H,3H)-dione] | 0.0001 to 10 | 0.0001 to 10
20 | CN1CCC[C@H]1COc1nc(N2[C@@H]3CC[C@H]2CNC3)c2ccc(-c3cccc4cccc(CO)c34)cc2n1 [P-0283, (8-(4-((1R,5S)-3,8-diazabicyclo[3.2.1]octan-8-yl)-2-(((S)-1-methylpyrrolidin-2-yl)methoxy)quinazolin-7-yl)naphthalen-1-yl)methanol] | 10 to 100 | 10 to 100
21 | Cc1cccc2cc(O)cc(-c3c(F)cc4c(N5C[C@H]6CC[C@@H](C5)N6)nc(OC[C@@H]5CCCN5C)nc4c3F)c12 [P-0087, 4-(4-((1R,5S)-3,8-diazabicyclo[3.2.1]octan-3-yl)-6,8-difluoro-2-(((S)-1-methylpyrrolidin-2-yl)methoxy)quinazolin-7-yl)-5-methylnaphthalen-2-ol] | 0.0001 to 10 | 0.0001 to 10
22 | Cc1cccc2c1N(c1ncc3c(N4C[C@H]5CC[C@@H](C4)N5)nc(OCC45CCCN4CCC5)nc3c1F)CC(O)C2 (stereo partly drawn) [P-0453, 1-(4-((1R,5S)-3,8-diazabicyclo[3.2.1]octan-3-yl)-8-fluoro-2-((tetrahydro-1H-pyrrolizin-7a(5H)-yl)methoxy)pyrido[4,3-d]pyrimidin-7-yl)-8-methyl-1,2,3,4-tetrahydroquinolin-3-ol] | 0.0001 to 10 | 100 to 1000
23 | CN1CCc2c(cccc2Oc2nc(N3C[C@H]4CC[C@@H](C3)N4)c3cc(Cl)c(-c4c(O)cccc4F)c(F)c3n2)C1 [P-0333, 2-(4-((1R,5S)-3,8-diazabicyclo[3.2.1]octan-3-yl)-6-chloro-8-fluoro-2-((2-methyl-1,2,3,4-tetrahydroisoquinolin-5-yl)oxy)quinazolin-7-yl)-3-fluorophenol] | 0.0001 to 10 | 10 to 100
24 | CN(C)Cc1nc(N2C[C@H]3CC[C@@H](C2)N3)c2cc(Cl)c(-c3c(O)cccc3F)c(F)c2n1 [P-0445, 2-(4-((1R,5S)-3,8-diazabicyclo[3.2.1]octan-3-yl)-6-chloro-2-((dimethylamino)methyl)-8-fluoroquinazolin-7-yl)-3-fluorophenol] | 10 to 100 | 10 to 100
